Earlier results as cited in patent US20260021122A1, “CANNABINOIDS AND USES THEREOF IN TREATMENT OF A DISEASE” (TECHNION RESEARCH & DEVELOPMENT FOUNDATION LIMITED, priority 2022, published 2026).

Legend:
MDSCs = details: one study, literature; cited from earlier work
[1] = system: triple-negative breast cancer; details: conditioned media from CBD-treated cancer cells, literature; cited from earlier work

SMILES: CCCCC/C=C\C/C=C\C/C=C\C/C=C\CCCC(=O)OC(CO)CO [2-AG, 2-arachidonoylglycerol]
- antitumor effects (MDSCs): exhibits direct antitumor effects
- suppressive immune cell population of MDSCs (MDSCs): increasing the suppressive immune cell population of MDSCs

SMILES: C=C(C)[C@@H]1CCC(C)=C[C@H]1c1c(O)cc(CCCCC)cc1O [CBD, Cannabidiol]
- levels of CCL3 [1]: lowered the levels
- levels of Granulocyte-macrophage (GM)-CSF [1]: lowered the levels
